In ChEMBL document CHEMBL1148683, “Synthesis and monoamine transporter affinity of front bridged tricyclic 3beta-(4'-halo or 4'-methyl)phenyltropanes bearing methylene or carbomethoxymethylene on the bridge to the 2beta-position” (Bioorg Med Chem Lett, 2006):

How the values were obtained:
[1] = molecular target: T1, Sodium-dependent noradrenaline transporter (Homo sapiens, UniProt P23975); assay: Displacement of [3H]nisoxetine from human NET transfected in HEK293 cells; assay type: cell-based
[2] = molecular target: Sodium-dependent serotonin transporter (Homo sapiens, UniProt P31645); assay: Displacement of [3H]citalopram from human SERT transfected in HEK293 cells; assay type: cell-based
[3] = molecular target: Sodium-dependent dopamine transporter (Homo sapiens, UniProt Q01959); assay: Displacement of [125I]RTI-55 from human DAT transfected in HEK293 cells; assay type: cell-based
Rhesus monkey [4] = assay: Selective uptake in putamen over occipital cortex of iv dosed rhesus monkey after 105 mins by microPET imaging assay; assay type: ADME, organism-based, Macaca mulatta; details: in vivo, 1.75 h
Rhesus monkey [5] = assay: Selective uptake in midbrain over occipital cortex of iv dosed rhesus monkey after 105 mins by microPET imaging assay; assay type: ADME, organism-based, Macaca mulatta, Brain; details: in vivo, 1.75 h
Rhesus monkey [6] = assay: Selective uptake in pons over occipital cortex of iv dosed rhesus monkey after 105 mins by microPET imaging assay; assay type: ADME, organism-based, Macaca mulatta; details: in vivo, 1.75 h
Rhesus monkey [7] = assay: Selective uptake in thalamus over occipital cortex of iv dosed rhesus monkey after 105 mins by microPET imaging assay; assay type: ADME, organism-based, Macaca mulatta; details: in vivo, 1.75 h
Rhesus monkey [8] = assay: Selective uptake in caudate over occipital cortex of iv dosed rhesus monkey after 105 mins by microPET imaging assay; assay type: ADME, organism-based, Macaca mulatta; details: in vivo, 1.75 h
Rhesus monkey [9] = assay: Selective uptake in medulla over occipital cortex of iv dosed rhesus monkey after 105 mins by microPET imaging assay; assay type: ADME, organism-based, Macaca mulatta; details: in vivo, 1.75 h
Rhesus monkey [10] = assay: Selective uptake in cerebellum over occipital cortex of iv dosed rhesus monkey after 25 mins by microPET imaging assay; assay type: ADME, organism-based, Macaca mulatta; details: in vivo
[11] = molecular target: T1, Sodium-dependent noradrenaline transporter; assay: Inhibition of (-)-[3H]NE uptake at NET
[12] = molecular target: Monoamine transporters; serotonin & dopamine (Homo sapiens) (UniProt P31645+Q01959); assay: Selectivity for human SERT over DAT; assay type: protein assay
[13] = molecular target: Serotonin and norepinephrine transporters (SERT/NET) (Homo sapiens) (UniProt P31645+P23975); assay: Selectivity for human SERT over NET; assay type: protein assay
Serotonin and norepinephrine transporters (SERT/NET) (Homo sapiens), sequence (P23975 whole entry, looked up): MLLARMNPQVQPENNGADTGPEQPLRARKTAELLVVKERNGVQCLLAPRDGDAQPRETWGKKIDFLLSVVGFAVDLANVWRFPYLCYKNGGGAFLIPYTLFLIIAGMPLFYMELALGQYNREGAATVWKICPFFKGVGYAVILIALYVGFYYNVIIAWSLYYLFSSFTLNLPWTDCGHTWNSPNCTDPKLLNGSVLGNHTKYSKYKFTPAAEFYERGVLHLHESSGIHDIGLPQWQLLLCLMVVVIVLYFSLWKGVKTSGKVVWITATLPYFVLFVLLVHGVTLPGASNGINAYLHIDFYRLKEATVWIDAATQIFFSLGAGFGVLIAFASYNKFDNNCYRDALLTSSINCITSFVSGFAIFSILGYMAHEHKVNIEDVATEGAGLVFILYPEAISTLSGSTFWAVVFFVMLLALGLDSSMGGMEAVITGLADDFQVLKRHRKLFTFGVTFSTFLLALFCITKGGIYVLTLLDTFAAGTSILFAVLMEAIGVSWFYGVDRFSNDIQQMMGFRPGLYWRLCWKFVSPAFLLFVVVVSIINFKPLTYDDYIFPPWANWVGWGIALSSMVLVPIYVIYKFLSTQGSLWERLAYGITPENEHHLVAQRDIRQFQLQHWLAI
Serotonin and norepinephrine transporters (SERT/NET) (Homo sapiens), sequence (P31645 whole entry, looked up): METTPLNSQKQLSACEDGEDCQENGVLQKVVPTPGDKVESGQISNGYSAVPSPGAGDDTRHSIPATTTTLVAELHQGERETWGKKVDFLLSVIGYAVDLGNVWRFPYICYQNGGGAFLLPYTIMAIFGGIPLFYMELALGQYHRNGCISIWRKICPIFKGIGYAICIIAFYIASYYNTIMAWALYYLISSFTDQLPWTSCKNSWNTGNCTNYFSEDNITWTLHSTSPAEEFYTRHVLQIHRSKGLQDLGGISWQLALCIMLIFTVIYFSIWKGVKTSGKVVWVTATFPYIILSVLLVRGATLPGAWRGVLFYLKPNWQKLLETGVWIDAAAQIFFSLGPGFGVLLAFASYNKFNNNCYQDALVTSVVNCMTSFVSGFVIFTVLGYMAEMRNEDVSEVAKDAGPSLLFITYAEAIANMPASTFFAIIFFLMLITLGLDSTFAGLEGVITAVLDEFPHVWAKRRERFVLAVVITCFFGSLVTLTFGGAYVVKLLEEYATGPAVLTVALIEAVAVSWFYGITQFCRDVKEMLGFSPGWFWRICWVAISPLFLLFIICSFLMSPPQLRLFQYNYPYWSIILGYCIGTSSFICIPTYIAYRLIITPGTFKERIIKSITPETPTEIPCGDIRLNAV

Sodium-dependent dopamine transporter, sequence (Q01959 whole entry): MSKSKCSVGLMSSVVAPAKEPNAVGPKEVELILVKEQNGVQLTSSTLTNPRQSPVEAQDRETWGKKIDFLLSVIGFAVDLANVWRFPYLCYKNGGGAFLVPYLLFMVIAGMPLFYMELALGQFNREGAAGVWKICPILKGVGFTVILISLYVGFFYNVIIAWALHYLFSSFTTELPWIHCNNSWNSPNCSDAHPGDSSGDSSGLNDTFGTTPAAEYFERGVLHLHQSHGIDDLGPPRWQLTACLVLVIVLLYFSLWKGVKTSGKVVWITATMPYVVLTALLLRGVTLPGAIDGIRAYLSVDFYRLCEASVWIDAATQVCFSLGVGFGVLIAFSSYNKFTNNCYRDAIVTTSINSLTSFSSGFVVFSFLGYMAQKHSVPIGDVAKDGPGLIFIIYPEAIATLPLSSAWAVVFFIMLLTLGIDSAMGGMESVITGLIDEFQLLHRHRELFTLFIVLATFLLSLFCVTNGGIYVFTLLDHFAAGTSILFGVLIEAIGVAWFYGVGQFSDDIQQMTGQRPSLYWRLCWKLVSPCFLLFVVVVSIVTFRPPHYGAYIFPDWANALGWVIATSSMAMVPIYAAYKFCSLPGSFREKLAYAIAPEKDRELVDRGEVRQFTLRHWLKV
Sodium-dependent serotonin transporter, sequence (P31645 whole entry): as the sequence (P31645 whole entry, looked up) above
T1 sequence (P23975 whole entry): as the sequence (P23975 whole entry, looked up) above
Monoamine transporters; serotonin & dopamine (Homo sapiens), sequence (P31645 whole entry, looked up): as the sequence (P31645 whole entry, looked up) above
Monoamine transporters; serotonin & dopamine (Homo sapiens), sequence (Q01959 whole entry, looked up): as the sequence (Q01959 whole entry) above

| SMILES | Ki [1] [nM] | Ki [2] [nM] | Ki [3] [nM] | other results |
| --- | --- | --- | --- | --- |
| C=C1CN2C3CCC2C1C(c1ccc(C)cc1)C3 (stereo unspecified) | 17.3 | 7.77 | 41 | Ratio (Rhesus monkey [4]): 1.83; Ratio (Rhesus monkey [5]): 1.53; Ratio (Rhesus monkey [6]): 1.52; Ratio (Rhesus monkey [7]): 1.48; Ratio (Rhesus monkey [8]): 1.47; Ratio (Rhesus monkey [9]): 1.36; Ratio (Rhesus monkey [10]): 1.39; IC50 [11]: 2.2 nM |
| COC(=O)/C=C1/CN2C3CCC2C1C(c1ccc(Cl)cc1)C3 (stereo unspecified) | 13 | 18.7 | 4.54 | – |
| C=C1CN2C3CCC2C1C(c1ccc(I)cc1)C3 (stereo unspecified) | 5.87 | 0.09 | 8.48 | Selectivity ratio [12]: 94; Selectivity ratio [13]: 65 |
| C=C1CN2C3CCC2C1C(c1ccc(Br)cc1)C3 (stereo unspecified) | 2.94 | 0.28 | 41.9 | – |
| COC(=O)/C=C1/CN2C3CCC2C1C(c1ccc(Br)cc1)C3 (stereo unspecified) | 12.5 | 5.63 | 2.94 | – |
| C=C1CN2C3CCC2C1C(c1ccc(Cl)cc1)C3 (stereo unspecified) | 4.84 | 0.82 | 12.3 | – |
| COC(=O)/C=C1/CN2C3CCC2C1C(c1ccc(C)cc1)C3 (stereo unspecified) | 25.5 | 98.3 | 13.2 | – |
